The experiment concerns the target T1, Human Glucocorticoid Receptor (GR) (Homo sapiens, UniProt P04150).
T1 construct: The full length GR was diluted to a final concentration of 3.3% (0.495 mg/ml) in assay buffer
T1 sequence (P04150 1-777): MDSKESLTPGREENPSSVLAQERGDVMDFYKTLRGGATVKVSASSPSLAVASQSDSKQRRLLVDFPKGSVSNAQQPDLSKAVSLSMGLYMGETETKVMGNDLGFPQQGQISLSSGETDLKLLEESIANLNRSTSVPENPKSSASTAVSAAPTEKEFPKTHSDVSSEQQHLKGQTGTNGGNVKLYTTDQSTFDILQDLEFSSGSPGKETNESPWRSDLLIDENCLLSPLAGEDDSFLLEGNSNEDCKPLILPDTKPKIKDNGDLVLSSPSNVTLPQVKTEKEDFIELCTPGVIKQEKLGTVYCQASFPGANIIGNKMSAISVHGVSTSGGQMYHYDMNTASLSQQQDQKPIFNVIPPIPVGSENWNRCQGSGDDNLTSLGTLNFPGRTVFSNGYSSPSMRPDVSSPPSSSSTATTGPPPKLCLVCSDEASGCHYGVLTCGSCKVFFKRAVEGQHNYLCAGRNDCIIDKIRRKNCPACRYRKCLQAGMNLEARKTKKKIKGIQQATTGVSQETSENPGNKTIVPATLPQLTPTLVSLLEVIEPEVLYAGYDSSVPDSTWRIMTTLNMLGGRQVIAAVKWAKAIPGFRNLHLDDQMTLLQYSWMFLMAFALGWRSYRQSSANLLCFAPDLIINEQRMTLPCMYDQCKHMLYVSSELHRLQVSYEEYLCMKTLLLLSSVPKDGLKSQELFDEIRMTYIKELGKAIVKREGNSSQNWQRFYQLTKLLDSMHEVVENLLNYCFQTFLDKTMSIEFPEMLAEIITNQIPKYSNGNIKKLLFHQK
In words: Human Glucocorticoid Receptor (GR) radioligand binding assay (3H-dexamethasone competition). The conditions noted are these: full length GR; 7 nM 3H-dexamethasone; 2 h at room temperature. As to the method:
Human Glucocorticoid Receptor (GR) Assay
The radioligand GR binding assay is based on a competition assay using ^3H-labeled Dexamethasone. Dexamethasone is known to bind in the ligand binding domain of GR and compete for binding with endogenous ligands like e.g. cortisol (Necela, 2003). In the GR radioligand binding assay, test compounds were serially diluted in semi-log steps (10 concentrations) with a final concentration of 10 μM. Test compounds (1 μL) and controls (1 μL) in 100% DMSO were added to 96 Greiner V-bottom polypropylene plates. 0% control was 6.7% DMSO (final concentration in assay) and 100% control was 6.7 μM Dexamethasone.
The full length GR was diluted to a final concentration of 3.3% (0.495 mg/ml) in assay buffer (20 mM Tris-HCl, 1 mM EDTA, 10% (w/v) Glycerol, 20 mM Sodium molybdate, pH 7.4). 45 μL of GR was added to each well and the plates were incubated for 15 min at room temperature.
^3H-dexamethasone solution was diluted to a concentration of 70 nM in assay buffer (7 nM final assay concentration) and 5 μL was added to each well. The samples were mixed for 5 min using a plate shaker at 700 rpm, before incubation for 2 h at room temperature.
50 μL ice-cold charcoal solution (pH 7.4:2% Charcoal, 0.2% Dextran T70 in 20 mM Tris-HCl, 1 mM EDTA and 20 mM Sodium molybdate) was added to each well and the samples were mixed on plate shaker for 5 minutes.
The plate was then centrifuged for 1.5 min at 1500 rpm, the samples (80 μL) were is transferred from each well to a filter plate (Millipore, 0.45 μm, MHVBN45) on a vacuum manifold and then collected into new plates (Greiner, 96 well white/transparent, 655095). The filter plate was washed once with 20 μl of water and then 100 μL of scintillation liquid was added to each well and mixed by incubation on plate shaker for 5 min. Radioactivity was measured in a 1450 Microbeta Trilux Reader (Wallac) counting cpm for 2 minutes per well. The data obtained from each replicate experiment were analysed using the software ActivityBase, version 5.4.3 (ID Business Solutions Ltd) and IC50 values were calculated. Ref: Necela, B M, Cidlowski, J A, Trends Pharmacol Sci, 24: 58, 2003

What is called pIC50 is the IC50 on a negative log10 scale, so that one unit is a factor of ten. A high value points to a low IC50.

pIC50: −log10 of the molar value.

`COc1ccc([C@@H](Oc2ccc3c(cnn3-c3cccc(C(=O)NC4CCCC4)c3)c2)[C@H](C)NC(=O)C(C)(F)F)cn1` [Example 22, N-cyclopentyl-3-(5-{[(1R,2S)-2-[(2,2-difluoropropanoyl)amino]-1-(6-methoxypyridin-3-yl)propyl]oxy}-1H-indazol-1-yl)benzamide] gave a pIC50 of 8.86. Under `C[C@H](NC(=O)C(C)(F)F)[C@H](Oc1ccc2c(cnn2-c2cccc(C(=O)NCCN3CCCC3=O)c2)c1)c1ccccc1` [Example 13, 3-[5-({(1R,2S)-2-[(2,2-difluoropropanoyl)amino]-1-phenylpropyl}oxy)-1H-indazol-1-yl]-N-[2-(2-oxopyrrolidin-1-yl)ethyl]benzamide] stands 7.42; under `C[C@H](NC(=O)C1(C#N)CC1)[C@H](Oc1ccc2c(cnn2-c2cccc(C(=O)N3CCC[C@@H]3C(N)=O)c2)c1)c1ccccc1` [Example 21, 1-{[3-(5-{[(1R,2S)-2-{-[1(1-cyanocyclopropyl)carbonyl]amino}-1-phenylpropyl]oxy}-1H-indazol-1-yl)phenyl]carbonyl}-D-prolinamide], 8.54; under `COc1ccc([C@@H](Oc2ccc3c(cnn3-c3cccc(C(=O)NC4CCCC4)c3)c2)[C@H](CO)NC(=O)C(C)(F)F)cn1` [Example 27], 7.87.

The values are drawn from patent US20100080786A1, “Phenyl or Pyridinyl Substituted Indazoles Derivatives” (priority 2008, published 2010).
